Data set [1] in a line: Microdialysis studies in rats (ventral hippocampus). It counts as in vivo, Male Sprague-Dawley rats. Particulars: 30 mg/kg subcutaneously, FIG. 2. Here is the method: Male Sprague-Dawley rats, initially weighing 275-300 g, were used. The animals were housed under a 12-hr light/dark cycle under controlled conditions for regular in-door temperature (21±2° C.) and humidity (55±5%) with food and tap water available ad libitum.
Rats were anaesthetised with hypnorm/dormicum (2 ml/kg) and intracerebral guide cannulas.
(CMA/12) were stereotaxically implanted into the brain, aiming to position the dialysis probe tip in the ventral hippocampus (co-ordinates: 5.6 mm posterior to bregma, lateral −4.8 mm, 7.0 mm ventral to dura. Anchor screws and acrylic cement were used for fixation of the guide cannulas. The body temperature of the animals was monitored by rectal probe and maintained at 37° C. The rats were allowed to recover from surgery for 2 days, housed singly in cages.
On the day of the experiment a microdialysis probe (CMA/12, 0.5 mm diameter, 3 mm length) was inserted through the guide cannula. The probe was connected via a dual channel swivel to a microinjection pump. Perfusion of the microdialysis probe with filtered Ringer solution (145 mm NaCl, 3 mM KCl, 1 mM MgCl2, 1.2 mM CaCl2) was begun shortly before insertion of the probe into the brain and continued for the duration of the experiment at a constant flow rate of 1 μl/min. After 180 min of stabilisation, the experiments were initiated. […]

The subject of data set [2] is High Frequency Oscillations (HFO) in the nucleus accumbens. The data set is described as follows: Resting state electroencephalography (rsEEG) in rats. It counts as in vivo. As to conditions: rat, 20 mg/kg, vs 10% captisol, FIG. 1. Here is the method:
On the day of surgery, rats (270-300 g) were anesthetized with a 0.25 ml/100 g subcutaneous (SC) injection of 1:1 hypnorm/Dormicum and mounted in a stereotaxic frame (David Kopf Instruments, Tujunga, Calif., USA) with blunt ear bars. Marcain (0.2 ml SC) was injected under the scalp, and gel (Neutral Opthta Eye Gel) put on the eyes to prevent the mucous membrane drying out. Holes were burred in the skull to allow for placement of three depth electrodes (E363-series; PlasticsOne, Roanoke, Va., USA) in medial prefrontal cortex (mPFC) (AP: 3.0 mm from the bregma suture, ML: −0.7 mm from the sagittal suture and DV: 3.0 mm from the dura), Nucleus accumbens (NAc): (AP+1.6 mm from the bregma suture, ML: −1.0 mm from the sagittal suture, DV: −6.7 mm from the dura) and thalamus (AP: −2.8 mm from the bregma suture, ML: +0.7 mm from the sagittal suture and DV: 4.4 mm from the dura) and three screw electrodes above the auditory cortex (A1) (AP: −4.8 mm from the bregma suture, ML: +6.4 mm from the sagittal suture), a reference electrode (AP: +8.0 mm and ML: −2.0 mm), and a ground electrode (AP: −5 mm, ML: +5 mm). […] Animal bodyweights were recorded daily. […]
Rats were handled daily and habituated to recording box the week before recording sessions. […] The analysis of the locomotor behaviour was based on the recorded accelerometer signal. […]

A short description of data set [3]: In vivo exposure (brain disposition) after intravenous bolus injection. Details: species or system male Sprague Dawley rats. Particulars: male, Sprague-Dawley, rat, 2 mg/kg intravenous bolus, 30 min post dose. As to the method: Brain disposition of test compound was evaluated in male Sprague Dawley rats (standard body weight range). Briefly, discrete (nominal dose: 2 mg/kg, 2 ml/kg) or cassetted (nominal dose: 1 mg/kg/compound, 2 ml/kg) test compounds were administered by intravenous bolus injection (formulated in 10% hydroxypropyl-β-cyclodextrin or 10-20% Captisol, pH=3).
Serial blood samples were collected from a lateral tail vein at designated time points (n=3 per time point) then rats were put under deep isoflurane induced anesthesia prior to removal of brains (n=3 per time point). Blood was collected into K3-EDTA-coated tubes and the samples were gently turned upside-down to ensure a homogenous sample. The tubes were centrifuged at 3300×g for 10 min. at max 4° C. and plasma samples were transferred to Micronic tubes. […]
Seven calibration standards and three QC samples were prepared in plasma and brain homogenate, respectively, in the concentration range 10-10000 ng/mL. […] Study samples with expected concentration above upper limit of quantification were diluted with blank matrix. […]
Samples were analyzed using an AB Sciex API4000 triple quadrupole (TQ) mass spectrometer operated in positive and negative electrospray ionization and MS/MS mode (multiple reaction monitoring, MRM). […] Quantification was performed by linear regression, 1/x2 weighting.

Data set [4] deals with NR1s1s2 (ligand binding domains of the NMDA receptor), glycine site (Rattus norvegicus, UniProt P35439). The data set is described as follows: Scintillation Proximity Assay (SPA), displacement of [3H]-MDL-105,519. Particulars: radioligand used in SPA. The text has this:
Scintillation Proximity Assay (SPA):
Normalized data are used to calculate Ki values.
A general note: Scintillation proximity formats need no separation of bound from free tracer.

pKd: −log10 of the molar value. Where two headings read alike, the source gives them in different places.

For `Cc1ccnc2cc(C(=O)NC[C@@H](N)C(=O)O)sc12` [Compound 1e, (R)-2-amino-3-[(7-methylthieno[3,2-b]pyridine-2-carbonyl)amino]propanoic acid], in data set [1], the “Extracellular levels in the rat ventral hippocampus after systemic administration” value is listed as “considerable extracellular levels”. For the same compound, in data set [2], the “Effect in rsEEG (High Frequency Oscillations in the nucleus accumbens) compared to vehicle” value was “clear effect”. Also, the concentration at 30 min in data set [3] (brain, read-out: Total Brain concentration (ng/mL) 30 min post dose) worked out at 8.4 ng/mL; in data set [3] (plasma, read-out: Total Plasma concentration (ng/mL) 30 min post dose), 270 ng/mL.
In turn, `O=C(O)C(=Cc1c(C(=O)O)[nH]c2cc(Cl)cc(Cl)c12)c1ccccc1` [[^3H]-MDL-105,519] gave a pKd in data set [4] of 8.89.

In general, pKd refers to the negative decadic logarithm of the Kd, by convention in mol/L.

The values are drawn from patent publication US11466027B2, “Modulators of the NMDA receptor” (H. Lundbeck A/S, priority 2019, dated 2022).
